Data taken from ChEMBL document CHEMBL2046327, “Jomthonic acid , a modified amino acid from a soil-derived Streptomyces” (J Nat Prod, 2012).
Active and inactive are the calls of the source. No cut-off for these calls is given here.

Key:
ST-13 = test: Induction of mouse ST-13 cell differentiation into mature adipocyte at 2 to 50 uM; assay type: functional, cell-based
[1] = Induction of mouse ST-13 cell differentiation into mature adipocyte at 50 uM; assay type: functional
MCF7 = test: Cytotoxicity against human MCF7 cells after 48 hrs by MTT assay; assay type: functional, cell-based; conditions: MCF7, 48 h
Escherichia coli = test: Antimicrobial activity against Escherichia coli NIH-JC2 after 20 hrs by microplate reader; assay type: functional; conditions: NIH-JC2, 20 h
Micrococcus luteus = test: Antimicrobial activity against Micrococcus luteus ATCC 9343 after 20 hrs by microplate reader; assay type: functional; conditions: ATCC 9343, 20 h
Candida albicans = test: Antimicrobial activity against Candida albicans IFO1594 after 20 hrs by microplate reader; assay type: functional; conditions: IFO1594, 20 h

- MIC (Escherichia coli): > 50 µg/mL
- MIC (Micrococcus luteus): > 50 µg/mL
- MIC (Candida albicans): > 50 µg/mL
Compound: C/C=C(C)/C=C/C(=O)N[C@H](C(=O)O[C@H](C)[C@@H](C)C(=O)O)[C@H](C)c1ccccc1 [JOMTHONIC ACID A]
- Activity (ST-13): Active
- Activity [1]: 80%
- IC50 (MCF7): > 100 µM
